The test system of this experiment is thrombus in the right jugular vein. Nature of the experiment: Thrombosis test (jugular vein, formalin/methanol initiated). The class given is in vivo, rat. Particulars: 7.5 mg/kg oral, 4 h. How it is done:
One hundred and two male Wistar rats, weighing 312±64 g (±SD), were handled and housed according to the Principles of Animal Care set out by the Canadian Federation of Biological Societies. The animals were fasted overnight prior to treatment and were anaesthetized with barbital and methoxyflurane for experimental procedures.
The rhamnan-arginine complex was weighed fresh daily. Six to 8 rats were treated per day. […] Thus when the stomach tube was placed in the stomach the drugs were first introduced into the stomach followed by saline to give a total volume of approximately 0.4 ml. In the heparin alone group, heparin was administered in a volume of 0.1-0.2 ml followed by 0.2 ml saline. Control group was saline alone.
The thrombosis test was performed by a modification of the procedure by Blake et al. For animals exposed to treatment for 4 h, a thrombus was initiated in the right jugular vein by application of 10% formalin in 65% methanol to the exposed adventitial surface. Immediately following, drugs were introduced into the stomach by stomach tube. […] The clot was scored as + (hard clot) if the vessel is blocked and remained blocked despite examination with a cotton pledget. […] The thrombus was scored as − (negative) if blood was seen to flow freely in the vessel.
Thrombosis data is expressed as a percentage with 95% confidence intervals. […] Other data is expressed as mean ±SE. […]

As to Heparin, the “incidence of hard clots” value is reported as “reduced the percentage of incidence of hard clots” and the “total incidence of thrombosis” value is listed as “little or no effect”.
